Six compounds from ChEMBL document CHEMBL1121678, “Antitumor agents. 44. Bis(helenalinyl) esters and related derivatives as novel potent antileukemic agents” (1981) can be followed below.

Format in all cases: functional
In experiment [1] the test system is Mus musculus. The experiment is described as follows: Antileukemic activity of compound against the P-388 lymphocytic leukemic BDF1 male mice at 12.5 mg/kg/day, administered intraperitoneally; 16.0/9.66 (Treated/control). Conditions: route intraperitoneal.
The subject of experiment [2] is Mus musculus. The experiment is described as follows: In vivo antileukemic activity against P-388 lymphocytic leukemia in BDF1 male mice at 50(mg/kg)/day intraperitoneal dose expressed as T/C.
Experiment [3] relates to Mus musculus. The experiment is described as follows: In vivo antileukemic activity against P-388 lymphocytic leukemia in BDF1 male mice at 12.5 mg/kg/day intraperitoneal dose expressed as T/C.
Experiment [4] deals with Mus musculus. The experiment can be described thus: In vivo antileukemic activity against P-388 lymphocytic leukemia in BDF1 male mice at 4(mg/kg)/day intraperitoneal dose expressed as T/C.
The subject of experiment [5] is Mus musculus. The experiment can be described thus: Antileukemic activity of compound against the P-388 lymphocytic leukemic BDF1 male mice at 25(mg/kg)/day, administered intraperitoneally; 17.2/9.66 (Treated/control).
Experiment [6] has as its system Mus musculus. The experiment can be described thus: In vivo antileukemic activity against P-388 lymphocytic leukemia in BDF1 male mice at 25(mg/kg)/day intraperitoneal dose expressed as T/C.
In experiment [7] the test system is Mus musculus. The experiment can be described thus: Antileukemic activity of compound against the P-388 lymphocytic leukemic BDF1 male mice at 2(mg/kg)/day, administered intraperitoneally; 11.2/9.66 (Treated/control).
Experiment [8] concerns Mus musculus. The experiment can be described thus: Antileukemic activity of compound against the P-388 lymphocytic leukemic BDF1 male mice at 8(mg/kg)/day, administered intraperitoneally; 13.7/9.66 (Treated/control).
The test system of experiment [9] is Mus musculus. The experiment can be described thus: Antileukemic activity of compound against the P-388 lymphocytic leukemic BDF1 male mice at 50(mg/kg)/day, administered intraperitoneally; 13.4/9.66 (Treated/control).
Experiment [10] concerns Mus musculus. The experiment is described as follows: In vivo antileukemic activity against P-388 lymphocytic leukemia in BDF1 male mice at 8(mg/kg)/day intraperitoneal dose expressed as T/C.
In experiment [11] the test system is Mus musculus. The experiment can be described thus: Antileukemic activity of compound against the P-388 lymphocytic leukemic BDF1 male mice at 4(mg/kg)/day, administered intraperitoneally; 10.6/9.66 (Treated/control).
For experiment [12], the system named is Mus musculus. The experiment can be described thus: In vivo antileukemic activity against P-388 lymphocytic leukemia in BDF1 male mice at 2(mg/kg)/day intraperitoneal dose expressed as T/C.
The subject of experiment [13] is Mus musculus. The experiment is described as follows: Antileukemic activity of compound against the P-388 lymphocytic leukemic BDF1 male mice at 15(mg/kg)/day, administered intraperitoneally; 10.8/9.66 (Treated/control).
Experiment [14] concerns Mus musculus. The experiment is described as follows: Antileukemic activity of compound against the P-388 lymphocytic leukemic BDF1 male mice at 8(mg/kg)/day, administered intraperitoneally; 11.9/9.66 (Treated/control).
In experiment [15] the test system is Mus musculus. The experiment is described as follows: In vivo antileukemic activity against P-388 lymphocytic leukemia in BDF1 male mice at 15(mg/kg)/day intraperitoneal dose expressed as T/C.
Experiment [16] relates to Mus musculus. The experiment can be described thus: Antileukemic activity of compound against the P-388 lymphocytic leukemic BDF1 male mice at 12(mg/kg)/day, administered intraperitoneally; 10.8/9.66 (Treated/control).
Experiment [17] concerns Mus musculus. The experiment is described as follows: In vivo antileukemic activity against P-388 lymphocytic leukemia in BDF1 male mice at 12(mg/kg)/day intraperitoneal dose expressed as T/C.
In experiment [18] the test system is Mus musculus. The experiment can be described thus: Antileukemic activity of compound against the P-388 lymphocytic leukemic BDF1 male mice at 15(mg/kg)/day, administered intraperitoneally; 9/9.66 (Treated/control).
Experiment [19] deals with Mus musculus. The experiment can be described thus: Antileukemic activity of compound against the P-388 lymphocytic leukemic BDF1 male mice at 2(mg/kg)/day, administered intraperitoneally; 11.5/9.66 (Treated/control).
Experiment [20] concerns Mus musculus. The experiment can be described thus: In vivo antileukemic activity against P-388 lymphocytic leukemia in BDF1 male mice at 30(mg/kg)/day intraperitoneal dose expressed as T/C.
Experiment [21] concerns Mus musculus. The experiment can be described thus: Antileukemic activity of compound against the P-388 lymphocytic leukemic BDF1 male mice at 4(mg/kg)/day, administered intraperitoneally; 16.5/9.66 (Treated/control).
For experiment [22], the system named is Mus musculus. The experiment is described as follows: Antileukemic activity of compound against the P-388 lymphocytic leukemic BDF1 male mice at 30(mg/kg)/day, administered intraperitoneally; 7/9.66 (Treated/control).
The test system of experiment [23] is Mus musculus. The experiment can be described thus: In vivo antileukemic activity against P-388 lymphocytic leukemia in BDF1 male mice at 60 mg/kg/day intraperitoneal dose expressed as T/C.
In experiment [24] the test system is Mus musculus. The experiment can be described thus: Antileukemic activity of compound against the P-388 lymphocytic leukemic BDF1 male mice at 60 mg/kg/day, administered intraperitoneally; 4.7/9.66 (Treated/control). Conditions: route intraperitoneal.
Experiment [25] relates to Mus musculus. The experiment can be described thus: Antileukemic activity of compound against the P-388 lymphocytic leukemic BDF1 male mice at 8(mg/kg)/day, administered intraperitoneally; 18.8/9.66 (Treated/control).
Experiment [26] concerns Mus musculus. The experiment is described as follows: Antileukemic activity of compound against the P-388 lymphocytic leukemic BDF1 male mice at 25(mg/kg)/day, administered intraperitoneally; 18.0/9.66 (Treated/control).
Experiment [27] deals with Mus musculus. The experiment can be described thus: Antileukemic activity of compound against the P-388 lymphocytic leukemic BDF1 male mice at 8(mg/kg)/day, administered intraperitoneally; 16.7/9.66 (Treated/control).
In experiment [28] the test system is Mus musculus. The experiment can be described thus: Antileukemic activity of compound against the P-388 lymphocytic leukemic BDF1 male mice at 60 mg/kg/day, administered intraperitoneally; 3.8/9.66 (Treated/control). As to conditions: route intraperitoneal.
Experiment [29] has as its system Mus musculus. The experiment can be described thus: Antileukemic activity of compound against the P-388 lymphocytic leukemic BDF1 male mice at 2(mg/kg)/day, administered intraperitoneally; 14.5/9.66 (Treated/control).
Experiment [30] deals with Mus musculus. The experiment is described as follows: Antileukemic activity of compound against the P-388 lymphocytic leukemic BDF1 male mice at 15(mg/kg)/day, administered intraperitoneally; 9.8/9.66 (Treated/control).
The subject of experiment [31] is Mus musculus. The experiment is described as follows: Antileukemic activity of compound against the P-388 lymphocytic leukemic BDF1 male mice at 30(mg/kg)/day, administered intraperitoneally; 6.7/9.66 (Treated/control).
Experiment [32] relates to Mus musculus. The experiment can be described thus: Antileukemic activity of compound against the P-388 lymphocytic leukemic BDF1 male mice at 4(mg/kg)/day, administered intraperitoneally; 16.2/9.66 (Treated/control).
Experiment [33] has as its system Mus musculus. The experiment can be described thus: Antileukemic activity of compound against the P-388 lymphocytic leukemic BDF1 male mice at 8(mg/kg)/day, administered intraperitoneally; 10.5/9.66 (Treated/control).

Molecules are shown by their SMILES.

Turning to `C=C1C(=O)O[C@@H]2C[C@@H](C)[C@@H]3C=CC(=O)[C@@]3(C)[C@@H](OC(=O)CCC(=O)O[C@H]3[C@@H]4C(=C)C(=O)O[C@@H]4C[C@@H](C)[C@@H]4C=CC(=O)[C@]43C)[C@H]12`, the “Average survival (days)” value in experiment [1] was 16; in experiment [5] it was 17.2; in experiment [7] it was 11.2; in experiment [8], 13.7; in experiment [9] it was 13.4; in experiment [11], 10.6. Further, the T/C (usually the ratio of treated to control) in [2] is reported as 140%; in experiment [3] it was 166%; in experiment [4], 110%; in experiment [6], 178%; in experiment [10], 168%; in experiment [12], 116%.

For the compound `C[C@@H]1C[C@H]2OC(=O)[C@@H](C)[C@H]2[C@H](OC(=O)CC(=O)O[C@H]2[C@@H]3[C@H](C)C(=O)O[C@@H]3C[C@@H](C)[C@@H]3C=CC(=O)[C@]32C)[C@]2(C)C(=O)C=C[C@@H]12`, the “Average survival (days)” value in [13] came to 10.8; in [14], 11.9; in experiment [16], 10.8. Moreover, the T/C in experiment [10] is listed as 124%; in experiment [15], 112%; in experiment [17], 112%.

For `C=C1C(=O)O[C@@H]2C[C@@H](C)[C@@H]3C=CC(=O)[C@@]3(C)[C@@H](OC(=O)CCCC(=O)O[C@H]3[C@@H]4C(=C)C(=O)O[C@@H]4C[C@@H](C)[C@@H]4C=CC(=O)[C@]43C)[C@H]12`, the “Average survival (days)” value was 9 in experiment [18]; 11.2 in experiment [19]; 16.5 in experiment [21]; 7 in experiment [22]; 4.7 in experiment [24]; 18.8 in experiment [25]. The T/C in experiment [4] is recorded as 171%; in experiment [20] it was 72%; in experiment [23], 48%; in experiment [10] it was 195%; in [15], 93%; in experiment [12] it was 116%.

`O=c1[nH]cc(F)c(=O)[nH]1` [FLUOROURACIL] came in with a T/C in experiment [23] of 186%. For the same compound, the “Average survival (days)” value in experiment [26] is 18.

For the compound `C=C1C(=O)O[C@@H]2C[C@@H](C)[C@@H]3C=CC(=O)[C@@]3(C)[C@@H](OC(=O)CCCCC(=O)O[C@H]3[C@@H]4C(=C)C(=O)O[C@@H]4C[C@@H](C)[C@@H]4C=CC(=O)[C@]43C)[C@H]12`, the “Average survival (days)” value amounted to 16.7 in [27]; 3.8 in [28]; 14.5 in experiment [29]; 9.8 in experiment [30]; 6.7 in experiment [31]; 16.2 in [32]. For the same compound, the T/C in experiment [4] stood at 167%; in [20], 69%; in experiment [23], 40%; in [10], 173%; in experiment [15], 101%; in [12] it was 150%.

Compound `CC1C(=O)O[C@@H]2C[C@@H](C)[C@@H]3CCC(=O)[C@@]3(C)[C@@H](O)[C@H]12` (stereo partly specified) came in with a T/C in experiment [23] of 109%. Further, in experiment [33], the “Average survival (days)” value came out at 10.5.
